In patent publication US20070299092A1 (Wyeth, priority 2004, published 2007):
pIC50: −log10 of the molar value. “And” between values parts separate entries of the source, which are not always exact repeats. Equal entries are not always repeated. Where two headings read alike, the source gives them in different places.

How the values were obtained:
[1] = target: T1, human KDR (VEGF-receptor-2) (Homo sapiens, UniProt P35968); experiment: KDR kinase enzyme assay (DELFIA, KDR-IC-Flag, poly(Glu4-Tyr) peptide); type: biochemical; details: for inhibition at 1 µM: Concentration 1000 nM; for inhibition at 1 µM / inhibition at 0.1 µM: read-out: % Inhibition; for inhibition at 0.1 µM: Concentration 100 nM
T1 construct: beginning at Met-806; (5′-ATG GAT CCA GAT GM CTC CCA TTG) and ending at Val-1356; made in house
T1 sequence (P35968 806-1356): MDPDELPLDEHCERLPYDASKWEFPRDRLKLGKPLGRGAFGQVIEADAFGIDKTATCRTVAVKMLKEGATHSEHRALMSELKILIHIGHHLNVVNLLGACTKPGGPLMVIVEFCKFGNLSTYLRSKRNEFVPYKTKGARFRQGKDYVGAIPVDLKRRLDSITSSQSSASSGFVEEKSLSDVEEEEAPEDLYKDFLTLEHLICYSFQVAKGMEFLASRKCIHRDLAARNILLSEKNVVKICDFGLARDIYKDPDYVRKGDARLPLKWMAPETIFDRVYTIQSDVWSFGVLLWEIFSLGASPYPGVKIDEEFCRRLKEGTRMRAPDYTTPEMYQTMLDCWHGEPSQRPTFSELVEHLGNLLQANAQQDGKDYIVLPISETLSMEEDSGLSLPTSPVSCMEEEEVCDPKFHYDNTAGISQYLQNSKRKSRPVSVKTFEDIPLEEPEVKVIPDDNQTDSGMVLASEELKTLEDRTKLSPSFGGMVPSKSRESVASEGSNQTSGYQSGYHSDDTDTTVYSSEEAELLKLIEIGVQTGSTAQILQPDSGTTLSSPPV

[2] = target: T1, human KDR (VEGF-receptor-2); experiment: KDR kinase enzyme assay wash-out experiments (irreversible inhibition); type: biochemical
Method: To determine if compounds bound irreversibly to enzyme, plates were washed after the enzyme plus compound pre-incubation step and prior to the addition of ATP. Parallel plates were tested wherein one plate was processed exactly as above while a second plate was washed three times in 100 μl of 4 mM HEPES, pH 7.4, to remove unbound compound. 1× Kinase buffer (30 μl of 1 mM MnCl2, 4 mM HEPES, pH 7.4, 20 μM Na3VO4) and 20 μl of ATP/MgCl2 were added to the wash-out plate. Detection of phosphotyrosinylated peptide for both plates was performed as described above.
For each inhibitor shown in Table 2, two IC50 determinations are shown, one under normal conditions and the other where an intermediate wash-out step is carried out. […] If there was a large increase in the IC50 value in the wash-out experiment compared to the experiment where there was no wash-out, then it was determined that the compound was behaving as a conventional reversible binding inhibitor.

[3] = target: T2, KDR (Homo sapiens, UniProt P35968); details: compound conc. 1000 nM
T2 sequence (P35968 20-1356): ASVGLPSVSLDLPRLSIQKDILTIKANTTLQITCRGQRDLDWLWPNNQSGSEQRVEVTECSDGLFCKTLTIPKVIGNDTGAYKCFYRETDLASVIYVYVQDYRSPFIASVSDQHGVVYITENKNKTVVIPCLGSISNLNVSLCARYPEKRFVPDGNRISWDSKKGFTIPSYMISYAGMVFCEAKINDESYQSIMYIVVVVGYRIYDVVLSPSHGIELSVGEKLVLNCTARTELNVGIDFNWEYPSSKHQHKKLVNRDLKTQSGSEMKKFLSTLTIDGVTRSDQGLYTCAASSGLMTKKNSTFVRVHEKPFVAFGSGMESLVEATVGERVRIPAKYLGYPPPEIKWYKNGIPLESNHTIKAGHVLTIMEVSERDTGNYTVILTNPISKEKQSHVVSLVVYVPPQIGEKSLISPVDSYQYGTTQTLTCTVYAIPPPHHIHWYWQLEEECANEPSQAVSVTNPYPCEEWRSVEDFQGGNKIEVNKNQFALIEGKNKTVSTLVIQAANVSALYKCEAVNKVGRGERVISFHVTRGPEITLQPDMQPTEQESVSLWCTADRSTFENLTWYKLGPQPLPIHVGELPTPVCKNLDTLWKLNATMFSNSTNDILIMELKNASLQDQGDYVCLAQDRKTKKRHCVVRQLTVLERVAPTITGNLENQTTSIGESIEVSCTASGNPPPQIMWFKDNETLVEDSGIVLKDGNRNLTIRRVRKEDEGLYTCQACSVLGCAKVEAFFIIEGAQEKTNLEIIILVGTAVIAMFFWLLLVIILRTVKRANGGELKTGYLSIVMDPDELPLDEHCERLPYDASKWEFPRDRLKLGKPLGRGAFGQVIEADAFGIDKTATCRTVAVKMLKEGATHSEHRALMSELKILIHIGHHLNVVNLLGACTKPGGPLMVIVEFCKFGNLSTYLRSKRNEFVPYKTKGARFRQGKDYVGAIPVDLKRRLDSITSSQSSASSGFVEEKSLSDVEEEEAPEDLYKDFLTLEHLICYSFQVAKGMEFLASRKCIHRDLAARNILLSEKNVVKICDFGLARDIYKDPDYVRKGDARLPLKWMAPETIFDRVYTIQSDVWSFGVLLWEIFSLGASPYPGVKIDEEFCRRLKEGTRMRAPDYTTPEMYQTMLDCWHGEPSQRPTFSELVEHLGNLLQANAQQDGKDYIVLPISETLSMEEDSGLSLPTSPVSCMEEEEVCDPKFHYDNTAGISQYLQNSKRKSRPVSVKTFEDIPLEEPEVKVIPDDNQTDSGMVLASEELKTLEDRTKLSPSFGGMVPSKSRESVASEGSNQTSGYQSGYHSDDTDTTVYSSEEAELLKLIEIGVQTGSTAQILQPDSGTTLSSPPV

[4] = target: T2, KDR; experiment: cell-based; details: for IC50: IC50 (nM), inhibition of KDR kinase autophosphorylation in KDR15 cells, KDR15 cells, VEGF 50 ng/ml, phospho-KDR-Y996 immunoblot; for inhibition at 1 µM: read-out: % Inhibition of KDR kinase autophosphorylation in KDR15 cells, compound conc. 1000 nM
[5] = tested on: Human umbilical vein endothelial cells (HUVEC); experiment: HUVEC proliferation assay, VEGF-dependent growth ([3H]-thymidine incorporation); type: cell-based; details: for inhibition at 0.1 µM / inhibition at 1 µM / inhibition at 10 µM: Homo sapiens, HUVEC
Summary of the method: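 HUVEC seeded 4000 cells/well, attached overnight, then given compound in serum/VEGF-free EBM plus 50 ng/ml VEGF (final); parallel plates used EGM2 with 2% serum lacking VEGF. Incubation 4-5 days at 37° C. DNA synthesis measured by 5 h [3H]-thymidine (1 μCi/well) incorporation, scintillation-counted.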

Structure (SMILES) | pIC50 ([1]; ATP conc. 10 μM) | inhibition at 1 µM ([1]; ATP conc. 10 μM) | inhibition at 1 µM ([1]; ATP conc. 1000 μM) | Behaviour as reversible or irreversible binding inhibitor ([2]; IC50 with wash-out step compared to no wash-out step) | pIC50 ([2]; no wash) | pIC50 ([2]; wash out) | % Inhibition of KDR kinase autophosphorylation in KDR15 cells [3] | IC50 [4] | inhibition at 1 µM [4] | inhibition at 0.1 µM ([1]; ATP conc. 10 μM) | inhibition at 10 µM ([1]; Concentration 10000 nM, ATP conc. 10 μM) | inhibition at 0.1 µM ([5]; conc. 100 nM) | inhibition at 1 µM ([5]; conc. 1000 nM) | inhibition at 10 µM ([5]; conc. 10000 nM) | inhibition at 10 µM ([1]; Concentration not given, ATP conc. 10 μM) | % Inhibition of VEGF-dependent growth of HUVEC ([5]; conc. 100 nM) | % Inhibition of VEGF-dependent growth of HUVEC ([5]; conc. 10000 nM) | melting point | % Inhibition of VEGF-dependent growth of HUVEC ([5]; conc. 1000 nM)
COc1cc2ncnc(NC3=CC(=O)C(C)=CC3=O)c2cc1OC [Example 4, 2-[(6,7-dimethoxy-4-quinazolinyl)amino]-5-methylbenzo-1,4-quinone] | 7.09 and 6.54 and 6.15 | 15% | 12% | appear to act like reversible binding inhibitors | 6.54 | < 6.00 | 106% | < 15.6 nM | 100% |  |  |  |  |  |  |  |  |  | 
COc1cc2ncnc(NC3=CC(=O)C=C(C)C3=O)c2cc1OC [Example 7, 2-[(6,7-dimethoxy-4-quinazolinyl)amino]-6-methylbenzo-1,4-quinone] | 8.64 and 8.89 | 96% | 97% |  | 8.64 | 8.92 | 41% | 250 nM |  | 85% | 96% | 23% | 79% | 97% |  |  |  |  | 
COCCOc1cc2ncnc(NC3=CC(=O)C(N(C)c4ccc(OC)c(OC)c4)=CC3=O)c2cc1OC [Example 73, 2-[(3,4-dimethoxyphenyl)(methyl)amino]-5-{[6-methoxy-7-(2-methoxyethoxy)quinazolin-4-yl]amino}benzo-1,4-quinone] | 5.73 and < 6.00 | 30% | -2% |  |  |  | 90% and 143% and 113% | < 15.6 nM |  |  |  |  |  |  | 13% |  |  |  | 
COCCOc1cc2ncnc(NC3=CC(=O)C(N(C)c4ccc(N(C)C)cc4)=CC3=O)c2cc1OC [Example 75, 2-[[4-(dimethylamino)phenyl](methyl)amino]-5-{[6-methoxy-7-(2-methoxyethoxy)quinazolin-4-yl]amino}benzo-1,4-quinone] | 7.03 | 92% | 93% |  | 7.03 | 6.79 | 61% |  | 45% | 47% |  | -22% | 41% | 91% |  |  |  |  | 
COCCOc1cc2ncnc(NC3=CC(=O)C(N(C)c4ccc(OC)cc4)=CC3=O)c2cc1OC [Example 78, 2-{[6-methoxy-7-(2-methoxyethoxy)quinazolin-4-yl]amino}-5-[(4-methoxyphenyl)(methyl)amino]benzo-1,4-quinone] | 6.83 and 7.02 and 6.39 |  |  |  | 6.83 and 7.02 | 6.29 and 6.82 | 61% |  |  |  |  | 6% |  |  |  | 9% | 94% and 99% and 74% | 197 to 198 °C | 
COCCOc1cc2ncnc(NC3=CC(=O)C(N(C)C4CCCCC4)=CC3=O)c2cc1OC [Example 80, 2-[cyclohexyl(methyl)amino]-5-{[6-methoxy-7-(2-methoxyethoxy)quinazolin-4-yl]amino}benzo-1,4-quinone] | 6.18 |  |  |  |  |  | 52% | < 62.5 nM |  |  |  | 39% | 85% | 97% |  |  |  | 178 to 180 °C | 
COc1cc2ncnc(NC3=CC(=O)C(Oc4ccc(Cl)cc4)=CC3=O)c2cc1OC [Example 94, 2-(4-chlorophenoxy)-5-[(6,7-dimethoxyquinazolin-4-yl)amino]benzo-1,4-quinone] | 8.40 | 94% | 96% |  |  |  | 40% and 54% and 64% | 386 nM |  | 93% |  | 28% | 60% | 94% |  | 20% | 78% |  | 52%
COCCOc1cc2ncnc(NC3=CC(=O)C(OCc4ccccc4)=CC3=O)c2cc1OC [Example 96, 2-(benzyloxy)-5-{[6-methoxy-7-(2-methoxyethoxy)quinazolin-4-yl]amino}benzo-1,4-quinone] | 7.28 | 91% | 96% |  |  |  | 22% |  | 26% | 67% |  |  |  |  |  |  |  | 218 to 220 °C | 
COc1cc2ncnc(NC3=CC(=O)C(c4ccccc4)=CC3=O)c2cc1OC [Example 99, 2-[(6,7-dimethoxyquinazolin-4-yl)amino]-5-phenylbenzo-1,4-quinone] |  | 92% | 96% |  |  |  | 29% |  | 20% | 93% |  |  |  |  |  |  |  | 200 to 205 °C | 
